Measured values as given in patent publication US9643964B2, “3-(2-aminopyrimidin-4-yl)-5-(3-hydroxypropynyl)-1H-pyrrolo[2,3-C]pyridine derivatives as NIK inhibitors for the treatment of cancer” (Janssen Pharmaceutica NV, priority 2013, dated 2017).

Key:
L-363 cells = assay: Biological Assay C: antiproliferative activity on L-363 cells (CellTiter-Glo); format: cell-based, human; settings: 72 hr treatment, averaged values
Procedure, shortened: (§1)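 Luminescent ATP signal (CellTiter-Glo) measures growth of myeloma cells following a 72 h compound treatment. Values for the time-zero blank are subtracted, and each mean of duplicate wells is given as percentage of the no-drug control.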

JJN-3 cells = assay: Biological Assay C: antiproliferative activity on JJN-3 cells (CellTiter-Glo); format: cell-based, human; settings: 72 hr treatment, averaged values
Procedure, shortened: as §1

LP-1 cells = assay: Biological Assay C: antiproliferative activity on LP-1 cells (CellTiter-Glo); format: cell-based, human; settings: 72 hr treatment, averaged values
Procedure, shortened: as §1

[1] = biological target: T1, Recombinant Human NF-kappaB-Inducing Kinase (NIK/MAP3K14) (Homo sapiens, UniProt Q99558); assay: Biological Assay A2: inhibition of auto-phosphorylation of recombinant human NIK/MAP3K14 (AlphaScreen); format: biochemical; settings: auto-phosphorylation; averaged over all measurements on all batches; read-out: αscreen IC50
T1 sequence (Q99558 whole entry): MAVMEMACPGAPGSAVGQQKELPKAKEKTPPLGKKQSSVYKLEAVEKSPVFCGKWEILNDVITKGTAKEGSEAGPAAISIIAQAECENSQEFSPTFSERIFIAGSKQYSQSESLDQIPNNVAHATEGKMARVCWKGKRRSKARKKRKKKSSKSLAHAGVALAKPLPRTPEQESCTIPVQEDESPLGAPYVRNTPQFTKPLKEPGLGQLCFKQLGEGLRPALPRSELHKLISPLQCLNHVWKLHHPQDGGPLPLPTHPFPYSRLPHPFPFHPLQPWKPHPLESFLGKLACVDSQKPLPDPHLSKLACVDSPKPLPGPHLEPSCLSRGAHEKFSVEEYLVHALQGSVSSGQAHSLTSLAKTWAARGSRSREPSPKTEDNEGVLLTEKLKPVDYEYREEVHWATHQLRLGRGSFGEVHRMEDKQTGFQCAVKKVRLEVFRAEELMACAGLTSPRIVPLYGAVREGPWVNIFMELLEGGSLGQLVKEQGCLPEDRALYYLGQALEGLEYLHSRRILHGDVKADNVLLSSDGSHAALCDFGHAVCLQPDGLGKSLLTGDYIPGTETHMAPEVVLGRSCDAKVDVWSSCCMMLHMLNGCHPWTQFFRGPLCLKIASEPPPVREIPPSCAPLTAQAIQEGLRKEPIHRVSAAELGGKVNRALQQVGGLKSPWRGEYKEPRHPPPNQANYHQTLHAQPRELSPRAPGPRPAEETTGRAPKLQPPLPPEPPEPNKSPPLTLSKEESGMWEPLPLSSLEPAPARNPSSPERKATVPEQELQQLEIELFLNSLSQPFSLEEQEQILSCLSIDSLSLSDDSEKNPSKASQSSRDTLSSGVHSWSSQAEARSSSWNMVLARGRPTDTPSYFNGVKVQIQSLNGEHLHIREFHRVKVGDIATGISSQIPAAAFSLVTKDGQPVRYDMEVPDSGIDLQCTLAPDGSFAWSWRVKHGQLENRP
Procedure, shortened: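 AlphaScreen readout of anti-phospho-IKK Ser176/180 signal after 1 h, 25° C. incubation of 0.2 nM GST-NIK with compound and 25 microM ATP (Tris pH 7.5 buffer, MgCl2, 1% DMSO final). IC50 from sigmoidal fit of blank-corrected % inhibition against Log10 concentration.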

[2] = tested on: P-IKKα levels in L363 cells; assay: Biological Assay B: effect of compounds on P-IKKα levels in L363 cells; format: cell-based; settings: Homo sapiens, L-363, averaged values, read-out: IKKα Cellular IC50
Protocol: Effect of Compounds on P-IKKα Levels in L363 Cells
All compounds tested were dissolved in DMSO and further dilutions were made in culture medium. Final DMSO concentration was 1% (v/v) in cell assays. The human L363 cells (ATCC) were cultured in RPMI 1640 medium supplemented with GlutaMax and 10% fetal calf serum (PAA). Cells were routinely maintained at densities of 0.2×10^6 cells per ml-1×10^6 cells per ml at 37° C. in a humidified 5% CO2 atmosphere. Cells were passaged twice a week splitting back to obtain the low density. Cells were seeded in 96 well plates (Nunc 167008) at 2×10^6 per ml media in a volume of 75 μl per well plus 25 μl 1 μg/ml recombinant human B-cell activating factor BAFF/B1YS/TNFSF13B. Seeded cells were incubated at 37° C. in a humidified 5% CO2 atmosphere for 24 hr. Drugs and/or solvents were added (20 μl) to a final volume of 120 μl. Following 2 hr treatment plates were removed from the incubator and cell lysis was achieved by the addition of 30 μl 5× lysis buffer followed by shaking on a plate shaker at 4° C. for 10 min. At the end of this incubation lysed cells were centrifuged at 800×g for 20 min at 4° C. and the lysate was assessed for P-IKKα levels by sandwich immuno-assay carried out in anti-rabbit antibody coated Mesoscale plates. Within an experiment, the results for each treatment were the mean of 2 replicate wells. For initial screening purposes, compounds were tested using an 8 point dilution curve (serial 1:3 dilutions). For each experiment, controls (containing MG132 and BAFF but no test drug) and a blank incubation (containing MG132 and BAFF and 10 μM ADS125117, a test concentration known to give full inhibition) were run in parallel. The blank incubation value was subtracted from all control and sample values. To determine the IC50 a sigmoidal curve was fitted to the plot of % inhibition of control P-IKKα levels versus Log10 compound concentration.

[3] = biological target: T1, Recombinant Human NF-kappaB-Inducing Kinase (NIK/MAP3K14); assay: Biological Assay A: inhibition of recombinant human NIK/MAP3K14 activity (MBP phosphorylation, Mesoscale); format: biochemical; settings: averaged over all measurements on all batches; read-out: Biochemical (MSD MBP) IC50
Protocol: Inhibition of Recombinant Human NF-kappaB-Inducing Kinase (NIK/MAP3K14) Activity
Assay buffer was 50 mM Tris pH 7.5 containing 1 mM EGTA (ethylene glycol tetraacetic acid), 1 mM DTT (dithiothreitol), 0.1 mM Na3VO4, 5 mM MgCl2, 0.01% Tween 20. Assays were carried out in 384 well Mesoscale high binding plates which had been coated with myelin basic protein (MBP) and blocked with bovine serum albumin to prevent non-specific protein binding. All compounds tested were dissolved in dimethyl sulfoxide (DMSO) and further dilutions were made in assay buffer. Final DMSO concentration was 1% (v/v) in assays. Incubations consisted of compound (1% DMSO in control and blank wells), 25 μM Adenosine-5′-triphosphate (ATP), and 10 nM NIK/MAP3K14 substituting enzyme with buffer in the blank wells. Incubations were carried out for 1 h at 25° C. and were followed by washing and sequential incubation with rabbit anti-phospho-MBP and anti-rabbit Ig Sulfotag antibody before reading bound Sulfotag on a Mesoscale Discovery. Signal obtained in the wells containing blank samples was subtracted from all other wells and IC50's were determined by fitting a sigmoidal curve to % inhibition of control versus Log10 compound concentration.

Structure (SMILES)	EC50 (L-363 cells) [nM]	EC50 (JJN-3 cells) [nM]	EC50 (LP-1 cells) [nM]	IC50 [1] [nM]	IC50 [2] [nM]	EC50 (L-363 cells; Homo sapiens, L-363, 72 h) [nM]	EC50 (JJN-3 cells; Homo sapiens, JJN-3, 72 h) [nM]	IC50 [3] [nM]	EC50 (LP-1 cells; Homo sapiens, LP-1, 72 h) [nM]
COCCCn1cc(-c2nc(N)ncc2F)c2cc(C#CC(C)(O)C3CC3)ncc21 (single isomer, unassigned) [Compound 120]	74	95	200	17	20	–	–	–	–
CC(O)(C#Cc1cc2c(-c3nc(N)ncc3F)cn(C3COC3)c2cn1)C1CC1 (single isomer, unassigned) [Compound 122]	69	100	310	26	36	–	–	–	–
CC(C)(O)C#Cc1cc2c(-c3ccnc(N)n3)c[nH]c2cn1 [Compound 1]	–	–	–	4	93	180	200	6.9	3200
COCCn1cc(-c2ccnc(N)n2)c2cc(C#CC(C)(C)O)ncc21 [Compound 2]	–	–	–	48	82	210	220	9.7	1900
CC(C)(O)C#Cc1cc2c(-c3ccnc(N)n3)cn(CC(C)(C)O)c2cn1 [Compound 3]	–	–	–	34	75	230	500	15	11000
CNc1nccc(-c2c[nH]c3cnc(C#CC(C)(C)O)cc23)n1 [Compound 4]	–	–	–	21	130	400	420	46	5300
Cn1cc(-c2ccnc(N)n2)c2cc(C#CC(C)(C)O)ncc21 [Compound 5]	–	–	–	8	30	94	160	1.6	320
CC(C)(O)C#Cc1cc2c(-c3ccnc(N)n3)cn(CC3CCOC3)c2cn1 (centres unmarked) [Compound 6]	–	–	–	11	68	790	860	2.3	3000
CC(C)(O)C#Cc1cc2c(-c3ccnc(N)n3)cn(CCN3CCOCC3)c2cn1 [Compound 7]	–	–	–	210	540	1900	1900	15	3200
CC(C)(O)C#Cc1cc2c(-c3nc(N)ncc3Cl)cn(CCO)c2cn1 [Compound 8]	–	–	–	1	8	250	94	3.3	2700
Nc1nccc(-c2c[nH]c3cnc(C#CC4(O)CC4)cc23)n1 [Compound 9]	–	–	–	2	37	120	74	1.1	1200
CC(O)C#Cc1cc2c(-c3ccnc(N)n3)cn(C(C)C)c2cn1 (centres unmarked) [Compound 10]	–	–	–	29	100	46	80	9.2	230
COCCCn1cc(-c2nc(N)ncc2F)c2cc(C#CC(C)(C)O)ncc21 [Compound 76]	–	–	–	16	12	110	140	–	300
CC(O)(C#Cc1cc2c(-c3nc(N)ncc3F)cn(C3COC3)c2cn1)C1CC1 (centres unmarked) [Compound 97]	–	–	–	21	70	100	170	–	1200
CC(O)(C#Cc1cc2c(-c3nc(N)ncc3F)cn(C3COC3)c2c(C2CC2)n1)C1CC1 (centres unmarked) [Compound 98]	–	–	–	220	110	42	78	–	210
CN1CC(n2cc(-c3nc(N)ncc3F)c3cc(C#CC(C)(O)C4CC4)nc(C4CC4)c32)C1 (centres unmarked) [Compound 102]	–	–	–	900	32	21	35	–	65
CN(C)C(=O)n1cc(-c2nc(N)ncc2F)c2cc(C#CC(C)(O)C3CC3)ncc21 (centres unmarked) [Compound 103]	–	–	–	13	49	48	91	–	680
